The text below walks through data of patent US20040092583A1, “Treatment for inhibiting neoplastic lesions” (priority 2001, published 2004).

As a reminder, the MIC is the least concentration at which growth counts as inhibited. Read a high MIC as a less susceptible organism. One may read the IC50 as the midpoint of a concentration-inhibition curve.

What all share (type): cell-based
Test [1] concerns Staphylococcus aureus NCTC 10442. As to the kind of experiment: MIC, macrodilution broth procedure. Particulars: NCTC10442. Here is the method: These studies were performed to determine the minimum inhibitory concentration (MIC) of incensole/furanogermacren mixture. MIC values were determined using a macrodiluton broth procedure based on NCCLS Documents M7-A3 “Methods for dilution anti-microbial susceptibility tests for bacteria that grow aerobically-third edition, approved standard (1993). […] The following organisms were tested: [table]

For test [2], the system named is Staphylococcus aureus NCTC 6571. As to the kind of experiment: MIC, macrodilution broth procedure. The note with it: NCTC6571. Here is the method: (§1) These studies were performed to determine the minimum inhibitory concentration (MIC) of incensole/furanogermacren mixture.
(§2) MIC values were determined using a macrodiluton broth procedure based on NCCLS Documents M7-A3 “Methods for dilution anti-microbial susceptibility tests for bacteria that grow aerobically-third edition, approved standard (1993).

Test [3] concerns Enterococcus feacalis NCTC 775. As to the kind of experiment: MIC, macrodilution broth procedure. Particulars: NCTC775. Here is the method:
as §1, §2

The subject of a further test is HT29 colon carcinoma. As to the kind of experiment: clonogenic assay (two-layered soft agar), HT29. Particulars: Homo sapiens, HT-29, continuous exposure 5-6 days, read-out: IC50 (inhibition of colony formation by 50%). Here is the method:
(§3) In vitro cytotoxic activity of extracts containing high concentrations of incensole, furanogermacren and incensole/furanogermacren mixture were determined in several cultured tumour cell lines by performing the […] clonogenic assay. This assay assesses the inhibition of colony formation of tumour stem cells growing in soft agar by cytotoxic agents. Since tumour stem cells are responsible for the proliferate potential and aggressiveness of a tumour cell population, the clonogenic assay is highly predictive of in vivo response.
(§4) The extracts were dissolved in DMSO/water 1:1, prepared as a 30 mg/ml solution and stored at −20° C. until use. […]
(§5) Human tumour cell lines were grown in RPMI 1640 supplemented with 10% fetal calf serum and 2 mM L-glutamine. […] For treatment experiments, exponentially growing cells were trypsinized, washed twice with PBS and the percentage of viable cells was determined by hemocytometer count using trypan blue viable dye exclusion.
(§6) The clonogenic assay was performed according to a modified two-layered soft agar assay. […] Cultures were incubated at 5% CO2 and 37° C. in a humidifled atmosphere for 5-6 days under continuous exposure to drugs and monitored closely for colony growth using an inverted microscope. […]
(§7) If an ID50 or IC70 value could not be determined within the examined dose range, the lowest or highest concentration studies was used for the calculation. […]

Test [4] deals with PC3 Human Prostate Carcinoma. As to the kind of experiment: clonogenic assay (two-layered soft agar), PC3. The note with it: continuous exposure 5-6 days, read-out: IC50 (inhibition of colony formation by 50%). How it is done:
as §3, §4, §5, §6, §7

Values after ≈ are worked out from the molar mass of the structure shown.

`C/C1=C\C[C@]2(C(C)C)CC[C@@](C)(O2)[C@@H](O)CC/C(C)=C/CC1` [Incensole, incensole]: the MIC in test [1], in test [2] and in test [3] was 38 mg/L (≈ 124 µM) each time. Further, the IC50 in the test with HT29 colon carcinoma stood at 70 mg/L (≈ 228 µM); in test [4] it was 6 mg/L (≈ 19.6 µM).
